Test results from a melting point compilation (Tetko et al.; mined from patent text by program, amines drawn as free bases though some values may be those of a salt).

Structure (SMILES)	melting point [°C]
O=C(CCc1ccccc1)N[C@H](Cc1ccc(C(F)(F)F)c(F)c1)[C@@H](O)c1ccc(F)cc1 (racemic)	126 to 127
COC(=O)[C@@H]1C[C@H](OS(=O)(=O)c2ccc(Br)cc2)C(=O)[C@@H]2[C@@]3(C)C[C@@H](c4ccoc4)OC(=O)[C@H]3CC[C@]21C	165 to 166
CSC(SC)C1(O)O[C@H](COCc2ccccc2)[C@@H](OCc2ccccc2)[C@H](OCc2ccccc2)[C@H]1OCc1ccccc1 (stereo not given in full)	96 to 97
O[C@H]1COC(c2cc3ccccc3[nH]2)=N[C@@H]1c1ccccc1 (racemic)	204
C[Si](C)(C)OCCNc1ccc(NCCO[Si](C)(C)C)c2c1C(=O)c1ccccc1C2=O	123 to 126
Nc1ncc(-c2cc(N3CCOCC3)nc(-n3c(C(F)F)nc4ccccc43)n2)cn1	281 to 285
CN(c1ccc(Cl)cc1)S(=O)(=O)c1cccc(C(=O)Nc2ccc(Cl)cc2C#N)c1	157 to 158
O=C(O)c1cc(Br)cc2c1NCCS2	205 to 206
CN1CCN(C2=Nc3ccccc3Cn3cccc32)CC1	139 to 141
Cn1nc(-c2ccc(C(=O)O)cc2)nc1-c1ccccc1	243 to 244
COC(=O)C(=O)C12CC3CC(CC(O)(C3)C1)C2	164 to 166
COc1ccc(C=CCN2CCC3(CC2)CN(C(=O)c2ccnc(Cl)c2)c2ccc(Cl)cc23)cc1	83 to 85
CN(C(=O)c1ccc(N2CCOCC2)cc1)[C@@H]1CCN(C(=O)C2CCN(C(=O)C3(O)CC3)CC2)C[C@H]1c1ccc(Cl)c(Cl)c1	151 to 153
CCc1ccccc1C=C1CCN2Cc3ccccc3N=C12	224 to 225
O=[N+]([O-])C=C(NCCCOc1cccc(CN2CCCCC2)c1)NCC(O)c1ccc(F)cc1 (stereo not given)	135 to 136
CC(C)=CCc1c(O)ccc(C(=O)C=Cc2ccc(O)cc2O)c1O	150 to 151
CC(=O)Nc1cnc(-c2cc(Cl)ccc2Cl)c(N)n1	152 to 154
COC(=O)c1cc2ccc(Br)cc2s1	108 to 110
ON=CN1CCCC1C1=Nc2ccc(Cl)cc2C(c2ccccc2F)=NC1 (stereo not given)	175 to 178
COc1cc(OC)c([N+](=O)[O-])nc1N	195
CN(C)C(=S)C1CC(C)(C)Oc2ccc([N+](=O)[O-])cc21 (stereo not given)	158 to 160
CC(C)(C)c1ccc(C(=O)Nc2cn3nc(NCCO)ccc3n2)cc1	231 to 233
CCOC(=O)c1cccc(-c2ccc3cc[nH]c3c2)c1	120 to 121
Cn1cc(C(=O)CCN2CCCCC2)cc1C(=O)c1cccc2ccccc12	141 to 143

Structure (SMILES)	melting point [°C]
CCCSc1nc[nH]n1	53 to 56
CSc1ccc2ncc([N+](=O)[O-])c(-c3ccccc3)c2c1	131 to 133
O=C(O)c1ccc(-c2nc(-c3c(F)c(F)c(F)c(F)c3F)cs2)cc1	273 to 274
CCOC(=O)c1cccn1Cc1ccc(Cl)cc1N	104 to 107
CC1(C)Oc2cc3nonc3cc2C(N2CCC(O[N+](=O)[O-])CC2=O)C1O (stereo not given)	186 to 189
Cc1nnc(-c2ccc3occ(-c4ccc5c(c4)C(C)(C)CS5)c3c2)o1	159 to 160
FC(F)(F)c1ccccc1OCCCc1cn(C(c2ccccc2)(c2ccccc2)c2ccccc2)cn1	204 to 208
CCOP(=O)(O)COCCn1cnc2c(=O)[nH]c(N)nc21	192 to 194
COCON=C(C(C)=O)C(=O)OC	115 to 120
O=C1NCc2cc(C(=O)CCCl)ccc2N1	> 270
CCCCCCCc1cn(CC(O)c2ccccc2)c(=N)s1 (stereo not given)	124
O=C1CCN(Cc2cnc(Nc3n[nH]c4ccc(-c5ncccc5Cl)cc34)s2)CC1	187 to 188
COc1cc(C(C)=O)ccc1OCCCCN1CCC(c2n[nH]c3ccccc23)CC1	133 to 135
CCOCn1c(Oc2cc(C)cc(C)c2)c(CC)c(=O)[nH]c1=O	139 to 140
O=c1c(-c2ccc(O)cc2)coc2ncccc12	262 to 264
Cc1ccc(C(OS(=O)(=O)c2c(C)cc(C)c(S(=O)(=O)OC(c3ccc(C)cc3)(C(F)(F)F)C(F)(F)F)c2C)(C(F)(F)F)C(F)(F)F)cc1	178
O=C1OC(CCc2ccccc2)(c2ccccc2)CC(O)=C1CCc1ccccc1 (stereo not given)	68 to 70
CSc1cc(Oc2cccc(C(F)(F)F)c2)nc(C(=O)NC(C)C)c1	66 to 69
O=C(Nc1cccc2c1C(=O)c1c-2n[nH]c1-c1ccc(C(=O)N2CCN(CC3CC3)CC2)s1)NN1CCOCC1	211 to 212
Cc1cccc(C(=O)O)c1N(C)S(=O)(=O)c1ccc(OCCCNC(=O)c2cc3ccccc3o2)cc1	184 to 186
CCOC(=O)c1nc(C)cc(C#N)c1C	55.5
CC(C)(C)c1cc(CCc2ccccc2NC(=O)NCCN2CCOCC2)cc(C(C)(C)C)c1O	166 to 167
COc1ccc(C(=O)c2cccc(C(F)(F)F)c2)cc1	62.5 to 63.5
COCC(=O)N(c1c(C)ccc(Cl)c1C)C1CCOC1=O (stereo not given)	80 to 82

Structure (SMILES)	melting point [°C]
CCn1ncc2c1ncc1c(Cl)nc3ncnn3c12	196 to 197
Cc1nc(-c2cnc3[nH]cc(C(=O)N[C@@H](C(=O)N4CC(C#N)C4)C(C)(C)C)c3n2)cn1-c1cccc(F)c1	171 to 176
c1ccc(Cn2ccc3nnc4ccccc4c32)cc1	190 to 192
CC(C)(C)c1ccc(CCN2C(=O)COc3ccc(C=C4SC(=S)NC4=O)cc32)cc1	283 to 285
C=C(C)C(=O)OCc1c(Br)c(Br)c(Br)c(COC(=O)C(=C)C)c1Br	97 to 99
CC(=O)NC[C@H]1CN(c2ccc(N3CCC(=CC#N)C(C)(C)C3)c(F)c2)C(=O)O1	150 to 152
CCOC(=O)CCc1c[nH]c2cnc(-n3cncn3)cc12	129 to 131
Cn1c(N2CCOC(c3nc(-c4ccccc4)no3)C2)nc(-c2ccncn2)cc1=O (stereo not given)	167
COC1(C)CCc2c(C)c(OC(C)=O)c(C)c(C)c2O1 (stereo not given)	71 to 72.5
CCOc1ccc(Cn2cnc3c(-c4ccco4)ncnc32)cc1	165 to 166
CNC(=O)Nc1cc(C2(C)CC2)on1	144 to 147
C=CCC(=O)S/C=C\C(=O)NCCCCCCCC	60 to 62
CC(C)(O)c1cc(O)cc(C(C)(C)O)c1	137 to 138
CCOc1ccc(C2=NN(CC3CC3)C(=O)[C@H]3CC=CC[C@@H]23)cc1OCC (relative stereo)	142 to 145
CC(C)(C)OC(=O)NCCN(CC(=O)O)C(=O)OCc1ccccc1	64.5 to 85
CCOC(=O)c1sc(C)nc1Oc1cccc(C(F)(F)F)c1	56
O=S(=O)(Cl)c1ccc(-c2cccc(F)c2)s1	75 to 84
C#CC(CC(=O)OC(C)(C)C)N=Cc1ccccc1 (stereo not given)	199 to 200
CC(O)=C(C#N)C(=O)Nc1cc(Cl)ccc1Cl	143 to 144
O=c1ccccn1[C@@H]1C[C@H](O)[C@@H](O)[C@H]1O (racemic)	138 to 140
CCC(=NOC)c1ccc(=O)[nH]c1CC	120 to 125
Cc1ccc2sc3cc(C(=O)Cl)ccc3c2c1	127 to 128
